Results: patent US5128338A, “Imidazo [1,2-c] quinazoline compounds” (priority 1990, dated 1992)

Key:
[1] = biological target: T1, peripheral receptors for benzodiazepines ([^3 H]-PK 11195) (Rattus norvegicus, UniProt P16257); test: Displacement of [3H]-PK 11195, rat heart microsomal fractions; format: binding; conditions: corrected for DMSO, read-out: K0.5, peripheral receptors, [^3 H]--PK 11195;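 note: radioligand binding with bound label split from free by vacuum filtration, then quantified through liquid scintillation counting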
T1 construct: on microsomal fractions from rat heart; from tissue; host or cells: rat heart, microsomal fractions

[2] = biological target: T2, peripheral receptors for benzodiazepines ([^3 H]-R05-4864) (Rattus norvegicus, UniProt P16257); test: Displacement of [3H]-R05-4864, rat heart microsomal fractions; format: binding; conditions: corrected for DMSO, read-out: K0.5, peripheral receptors, [^3 H]--RO 54864;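 note: Read-out is filter-retained bound radioligand, separated from free ligand by vacuum filtration over GF/C and counted by liquid scintillation, with compounds first dissolved in DMSO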
T2 construct: on microsomal fractions from rat heart; from tissue; host or cells: rat heart, microsomal fractions

[3] = biological target: central receptors for benzodiazepines; test: Displacement of [3H]-RO 151788, rat central nervous system microsomal fractions; format: binding; conditions: corrected for DMSO, read-out: K0.5, central receptors, [^3 H]--RO 151788
porcine coronary = test: Porcine coronary relaxation (PGF2α-precontracted coronary segments); parameters: species or system pig (Yucatan mini pig); conditions: for EC20 / EC50: Sus scrofa, porcine coronary segments, 37° C., PGF2α 4.10^-6 M, corrected for DMSO; for EC20: read-out: DE20, effect on coronary tension induced by PGF2α; for EC50: read-out: DE50, effect on coronary tension induced by PGF2α; for level of relaxation obtained as well as the 50% effect value (K0.5) obtained by displacement: overall judgement of relaxation and K0.5
Procedure: All the products studied were dissolved in DMSO at a concentration of 10^-2 M, then diluted to the desired concentrations in the experimental media. All of the ED20, ED50 and K0.5 values were corrected for the values obtained with DMSO under the same conditions of dilution.
Coronaries were taken on the heart of pigs (Yucatan mini pig), anesthetized under stresnil and pentobarbital. Proximal segments of the coronary were placed in an organ tank filled with Ringer solution at 37° C. The segments were tightened progressively to a base tension of around 6 g and contracted by the addition of PGF2α at a concentration of 4.10^-6 M. The potential of the products of the present invention to relax the coronary artery were then tested.
All of the compounds were tested for their capacity to relax the porcine coronary precontracted by PGF2α.

| SMILES | IC50 [1] [nM] | IC50 [2] [nM] | IC50 [3] [µM] | EC50 (porcine coronary) [nM] | level of relaxation obtained as well as the 50% effect value (K0.5) obtained by displacement (porcine coronary) | EC20 (porcine coronary) [µM] |
| --- | --- | --- | --- | --- | --- | --- |
| CCOC(=O)Cn1c(=O)n2cc(-c3ccccc3)nc2c2ccccc21 [Example 13, 2-phenyl-6-ethoxycarbonylmethyl-5-oxo-5,6-dihydroimidazo[1,2-c]quinazoline] | 100000 | > 100000 | > 100 | 7150 |  | 84.2 |
| CCN(CC)C(=O)Cn1c(=O)n2cc(-c3ccco3)nc2c2ccccc21 [Example 21, 2-(2-furyl)-6-N,N-diethylaminocarbonylmethyl-5-oxo-5,6-dihydroimidazo[1,2-c]quinazoline] | 260 | 580 | > 100 | 1000 |  | 3.89 |
| CC(C)NC(=O)Cn1c(=O)n2cc(-c3ccccc3)nc2c2ccccc21 [Example 14, 2-phenyl-6-N-isopropylaminocarbonylmethyl-5-oxo-5,6-dihydroimidazo[1,2-c]quinazoline] | > 100000 | > 100000 | > 100 | 13800 |  | 386 |

Compounds with a lower IC50 [1], results first:

| IC50 [1] [nM] | IC50 [2] [nM] | IC50 [3] [µM] | EC50 (porcine coronary) [nM] | level of relaxation obtained as well as the 50% effect value (K0.5) obtained by displacement (porcine coronary) | SMILES | EC20 (porcine coronary) [µM] |
| --- | --- | --- | --- | --- | --- | --- |
| 210 | 70 | 100 | 940 |  | CCN(CC)C(=O)Cn1c(=O)n2cc(-c3ccc(C)cc3)nc2c2ccccc21 [Example 18, 2-(p-methylphenyl)-6-N,N-diethylaminocarbonylmethyl-5-oxo-5,6-dihydroimidazo[1,2-c]quinazoline] | 8.37 |
| 140 | 120 | 100 | 450 | particularly favorable | CCN(CC)C(=O)Cn1c(=O)n2cc(-c3ccc(OC)cc3)nc2c2ccccc21 [Example 17, 2-(p-methoxyphenyl)-6-N,N-diethylaminocarbonylmethyl-5-oxo-5,6-dihydroimidazo[1,2-c]quinazoline] | 2.22 |
| 58 | 50 | > 100 | 2360 |  | CCN(CC)C(=O)Cn1c(=O)n2cc(-c3cccc(Cl)c3)nc2c2ccccc21 [Example 19, 2-(m-chlorophenyl)-6-N,N-diethylaminocarbonylmethyl-5-oxo-5,6-dihydroimidazo[1,2-c]quinazoline] | 23.6 |
| 2.4 | 3.1 | > 100 |  | particularly favorable | CCCN(CCC)C(=O)Cn1c(=O)n2c(C)c(-c3cccc(Cl)c3)nc2c2ccccc21 [Example 32, 2-(m-chlorophenyl)-3-methyl-6-N,N-dipropylaminocarbonylmethyl-5-oxo-5,6-dihydroimidazo[1,2-c]quinazoline] |  |
